PubChem BioAssay (NCI)
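Each compound was tested at five concentrations against cells in 96-well plates for 48 hours. At the GI50, growth is halved. TGI: concentration producing complete growth inhibition.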

Tests used:
Assay in all cases: NCI-60 cell line screen, 48 h
HT29 colon = test system: HT29 colon
SF-295 CNS = test system: SF-295 CNS
NCI-H522 lung = test system: NCI-H522 lung
CAKI-1 renal = test system: CAKI-1 renal
HCT-15 colon = test system: HCT-15 colon
SK-MEL-28 melanoma = test system: SK-MEL-28 melanoma
M14 melanoma = test system: M14 melanoma
CCRF-CEM leukemia = test system: CCRF-CEM leukemia
SK-MEL-5 melanoma = test system: SK-MEL-5 melanoma
HL-60(TB) leukemia = test system: HL-60(TB) leukemia

SMILES	GI50 (HT29 colon) [µM]	TGI (HT29 colon) [µM]	GI50 (SF-295 CNS) [µM]	TGI (SF-295 CNS) [µM]	GI50 (NCI-H522 lung) [µM]	TGI (NCI-H522 lung) [µM]	GI50 (CAKI-1 renal) [µM]	TGI (CAKI-1 renal) [µM]	GI50 (HCT-15 colon) [µM]	TGI (HCT-15 colon) [µM]	GI50 (SK-MEL-28 melanoma) [µM]	TGI (SK-MEL-28 melanoma) [µM]	GI50 (M14 melanoma) [µM]	TGI (M14 melanoma) [µM]	GI50 (CCRF-CEM leukemia) [µM]	TGI (CCRF-CEM leukemia) [µM]	GI50 (SK-MEL-5 melanoma) [µM]	TGI (SK-MEL-5 melanoma) [µM]	GI50 (HL-60(TB) leukemia) [µM]	TGI (HL-60(TB) leukemia) [µM]
[CH3][Sn]1([CH3])[O]CC(COc2cc(Cl)c(Cl)cc2Cl)[O]1 (stereo not drawn)	> 100	> 100	38.8	> 100	16.8	36.3	28.1	89.3	> 100	> 100	> 100	> 100	39.6	> 100	32.5	> 100	49.8	> 100	> 100	> 100
O=C1/C(=C\c2ccccc2)C2OCC=C3CN4CCC56c7ccccc7N1C5C2C3CC46 (stereo not drawn)	2.07	5.37	3.69	24.7	8.01	> 100	2.18	32.1	7.77	> 100	2.61	5.44	1.94	3.72	6.06	> 100	4.84	17.4	3.47	20.9
NC(=O)c1ccc(N(C(N)=O)c2c(F)cccc2F)nc1-c1ccc(F)cc1F	> 100	> 100	> 100	> 100	> 100	> 100	> 100	> 100	> 100	> 100	> 100	> 100	> 100	> 100	> 100	> 100	> 100	> 100	> 100	> 100
O=c1c2ccccc2nc(-c2ccccc2)n1NC(=S)Nc1cccc(Cl)c1		> 100		> 100		> 100		> 100		> 100		> 100		> 100		> 100		> 100		> 100
CC(=O)Nc1ccc(-c2nnc(SCC(=O)Nc3ccc(Cl)cc3)o2)cc1		23.2		25.2		5.98		33.7		40		27.2		34.1		82.9		19.7		40.1
Nc1c(C(=O)Nc2cccc3ccccc23)sc2nc3c(cc12)C(=O)CCC3	0.265		0.0779		0.057	1.02	0.359	> 100	0.262	> 100	0.341	53.4	0.24	> 100	0.29	> 100	0.333	4.44	0.246	0.804
